Test results reported in US20110152207A1, “USE OF VITAMIN D GLYCOSIDES AND SULFATES FOR TREATMENT OF DISEASE” (priority 2009, published 2011).
Marks after values point to notes of the source that are not given here.

Columns and labels:
[1] = Hypercalcemic effect: plasma calcium in rats under continuous subcutaneous infusion; type: in vivo; conditions: for Plasma Calcium Mean ± SD: 12th day, in mg/dL (unit assumed); for Significantly greater than control? Duncan's Multiple Range Test: plasma calcium
Procedure: The pumps were filled aseptically with the appropriate dose of drug dissolved in propylene glycol. The pumps were surgically implanted under the skin on the dorsal neck and shoulder area aseptically. On the 12th day of infusion, rats were deeply anesthetized (isofluorane inhalation) and blood was collected by cardiac puncture for plasma calcium determination. The plasma calcium levels were determined by standard methods.

[2] = Plasma calcium in the DSS mouse model of IBD; type: in vivo; conditions: DSS mice
Text: In this example, β-gluc-1,25-D3 compounds, alone or in combination with 25-β-glucuronide-25-hydroxyvitamin D3 compounds (hereinafter β-gluc-25-D3) were incorporated into the diet of mice and compared to equimolar 1,25-D3 with respect to therapeutic effects on IBD and induction of calcemia. A standard mouse model of IBD comprising administering dextran sodium sulfate (DSS) to induce inflammation of the lower colon was used to study these effects. Vitamin D treatments were first initiated for 4 days. After 4 days, mice were fed DSS-water for 7 days, allowed one day to recover, and sacrificed. Colon length, plasma calcium, fecal blood score, and body weight were assayed. Colon length is a standard marker of intestinal inflammation in the literature, with shortened colon length being an indicator of inflammation. A 1-cm section of the mid-colon was removed, fixed in formalin, and stained with hematoxylin & eosin for microscopic histopathologic evaluation by a veterinary pathologist blinded to the treatments. Each tissue section received a score from 0 to 4 reflecting absence of lesion to severe, extensive lesion for each of three criteria: (1) the degree of erosion/ulceration of colon mucosa; (2) the degree of infiltration of the tissues by inflammatory cells; and (3) the degree of submucosal edema. The sum of the score of each of these criteria constitutes the histopathological score for the tissue with a zero score representing normal tissue based on all criteria, and the worst possible outcome being a score of 12.

4T1 tumor cells = assay: 4T1 mammary tumor growth in BALB/c mice; type: in vivo; conditions: 280 ng/day s.c. daily, eight days
Procedure: 4T1 tumor cells, originally isolated from a BALB/cfC3H mouse mammary gland, were obtained from American Tissue Culture Collection (Manassas, Va.). The tumor growth and metastatic spread of 4T1 cells in BALB/c mice very closely mimic human breast cancer. This syngeneic tumor graft is an animal model for stage 1V human breast cancer (Pulaski et al. Cancer Res. 1998, 58:1486-1493). The cells were grown in RPMI-1640 media supplemented with 10% fetal bovine serum. When cell growth reached about 70% confluency, the cells were lifted from the flasks with standard removing medium and rinsed with 0.25% trypsin, 0.53-mM EDTA solution (trypsin-EDTA solution). This solution was removed and an additional 1 to 2 ml of trypsin-EDTA solution was added. The flask was allowed to sit at 37.0° C. until the cells detached. Fresh culture medium was added, and the cells were aspirated for enumeration using a hemocytometer. RPMI-1640 and Matrigel (BD Biosciences, Bedford, Mass.) solutions were prepared and maintained at 4° C. to keep the Matrigel liquid. […] Sixteen days after implantation of the cells, tumors approximately 0.5-0.7 cm in diameter (as measured with calipers) formed under the skin of many of the mice. […]

[3] = Plasma 1,25-D3 concentration in mice after a single oral dose (RIA)

In the case of C=C1/C(=C\C=C2/CCC[C@]3(C)[C@@H]([C@H](C)CCCC(C)(C)O[C@@H]4O[C@H](C(=O)O)[C@@H](O)[C@H](O)[C@H]4O)CC[C@@H]23)C[C@@H](O)C[C@@H]1O [β-gluc-1,25-D3, 25-β-glucuronide-1,25-dihydroxyvitamin D3], the “Plasma Calcium Mean ± SD” value ([1]; 14 ng/day continuous s.c. infusion) is reported as 10.63 ± 0.20, the “increase in plasma calcium” value ([1]; 70 ng/day) is reported as “no increase in plasma calcium” and the “Plasma Calcium Mean ± SD” value ([1]; 70 ng/day continuous s.c. infusion) is reported as 10.71 ± 0.15. The “Plasma Calcium Mean ± SD” value ([1]; 250 ng/day continuous s.c. infusion) was 11.02 ± 0.49, the “Plasma Calcium Mean ± SD” value ([1]; 350 ng/day continuous s.c. infusion) was 11.00 ± 0.25 and the “symptoms of hypercalcemia (feed intake)” value ([1]; 500 ng/day) was “no evidence of a reduction in feed intake or other symptoms”. For the same molecule, the “Plasma Calcium Mean ± SD” value ([1]; 500 ng/day continuous s.c. infusion) was 11.33 ± 0.38, the “lowest dose inducing a statistically significant increase in plasma calcium levels” value ([1]; continuous s.c. infusion) was 250 ng/day and the “Significantly greater than control? Duncan's Multiple Range Test” value ([1]; 250 ng/day) was “Yes”. The “Significantly greater than control? Duncan's Multiple Range Test” value ([1]; 350 ng/day) was “Yes”, the “Significantly greater than control? Duncan's Multiple Range Test” value ([1]; 500 ng/day) was “Yes” and the “hypercalcemic effect, fold less than the native hormone” value ([1]; versus 1,25-D3) was “at least 4 fold”. The “Plasma Calcium” value ([2]; 14 ng/day in diet) was 10.25 ± 0.33 mg/dL, the “Plasma Calcium” value ([2]; 70 ng/day in diet) was 10.12 ± 0.30 mg/dL and the “Plasma Calcium” value ([2]; 350 ng/day in diet) was 10.72 ± 0.33^d mg/dl. The “hypercalcemia” value ([2]; alone at 70 ng/day) was “not accompanied by a physiologically significant increase in hypercalcemia”, the “tumor weight mean±SEM” value (4T1 tumor cells; BALB/c mice) was 2.01 ± 0.36 g and the “effect on the growth of 4T1 tumor cells” value (4T1 tumor cells; P=0.034) was “significant anti-proliferative effect”. The “plasma 1,25-D3 concentration” value ([3]; 6 pmol per os, 6 hr time point) was “not significantly increased”, the “peak plasma 1,25-D3, fold over control mouse plasma 1,25-D3” value ([3]; 24 pmol per os) was 3.5 fold and the “peak plasma concentration of 1,25-D3” value ([3]; 24 pmol per os) was 325 pg/mL. For the same molecule, the “time of peak plasma 1,25-D3 concentration” value ([3]; 24 pmol per os) was “approximately 3 hr”, the “plasma 1,25-D3 concentration” value ([3]; 24 pmol per os, 24 hrs after treatment) was “slightly below the concentration observed in control animals” and the “levels of 1,25-D3 in the blood, 1,25-D3 versus β-gluc-1,25-D3” value ([3]; 6 hrs following treatment, each dose 6-48 pmol) was “comparable at each concentration”.
